Several values for one entry are separate records, joined by “and”; a condition that tells them apart may be missing. Equal entries are not always repeated. Structures can show the parent of a compound that is named as a salt.
How the values were obtained:
C57BL/6J wild-type mice [1] = details: mouse, in vivo
[2] = test system: μ receptor gene-disrupted 'knockout' (μ-KO) mice; details: mouse, in vivo
C57BL/6J wild-type mice [3] = test: Rotorod assay to determine locomotor activity; type: in vivo, mouse; details: i.c.v., HS665 10 nmol, HS666 30 nmol (ED90); 10-60 min
human NOP receptor = target: T1, human NOP receptor (Homo sapiens, UniProt P41146); test: [3H]-N/OFQ NOP receptor binding assay, CHO-hNOP membranes; details: up to a concentration of 10 μM
T1 construct: expressed in transfected cells

human μ receptor = target: T2, human μ receptor (Homo sapiens, UniProt P35372); test: [35S]-GTPγS binding assay, CHO-hμ membranes; type: biochemical; details: at concentrations up to 10 μM
T2 construct: expressed in transfected cells

human κ receptor [4] = test system: human κ receptor
C57BL/6J wild-type mice [5] = details: mouse, in vivo; remark: listed apart in the source
mice = test system: mice; set-up: method as in Spetea et al., 2012; details: s.c., ref Spetea et al., 2012; cited from earlier work
[6] = test system: κ receptor gene-disrupted 'knockout' (κ-KO) mice; details: mouse, in vivo
human κ receptor [7] = target: human κ receptor; set-up: method as in Spetea et al., 2012; details: ref Spetea et al., 2012, read-out: binding affinity (Ki) for the κ receptor; cited from earlier work
μ receptor = target: μ receptor; set-up: method as in Spetea et al., 2012; details: ref Spetea et al., 2012; read-out: binding affinity (Ki) for the μ receptor; cited from earlier work
δ receptor = target: δ receptor; set-up: method as in Spetea et al., 2012; details: ref Spetea et al., 2012; read-out: binding affinity for the δ receptor; cited from earlier work
human κ receptor [8] = target: T3, human κ receptor (Homo sapiens, UniProt P41145); test: biochemical; type: biochemical; set-up: expressed in transfected cells
human κ receptor [9] = target: T3, human κ receptor; test: cell-based; type: cell-based; set-up: host or cells: U2OS (U2OS–hκ receptor–β‐arrestin2 cells), PathHunter eXpress
C57BL/6J wild-type mice [10] = test system: C57BL/6J wild-type mice; set-up: method as in Aldrich et al., 2014; details: i.c.v.; ref Aldrich et al., 2014; cited from earlier work

T3 sequence (P41145 whole entry): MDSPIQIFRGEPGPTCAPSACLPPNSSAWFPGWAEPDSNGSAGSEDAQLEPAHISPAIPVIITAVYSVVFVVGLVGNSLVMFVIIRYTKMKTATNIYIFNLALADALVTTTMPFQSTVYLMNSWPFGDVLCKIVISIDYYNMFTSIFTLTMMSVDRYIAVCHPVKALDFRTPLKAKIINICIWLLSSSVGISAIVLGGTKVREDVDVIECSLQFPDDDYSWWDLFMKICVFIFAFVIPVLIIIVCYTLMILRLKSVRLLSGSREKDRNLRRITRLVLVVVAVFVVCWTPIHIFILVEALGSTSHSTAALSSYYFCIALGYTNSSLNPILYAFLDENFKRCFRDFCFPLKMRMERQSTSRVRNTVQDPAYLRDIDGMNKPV
T2 sequence (P35372 whole entry): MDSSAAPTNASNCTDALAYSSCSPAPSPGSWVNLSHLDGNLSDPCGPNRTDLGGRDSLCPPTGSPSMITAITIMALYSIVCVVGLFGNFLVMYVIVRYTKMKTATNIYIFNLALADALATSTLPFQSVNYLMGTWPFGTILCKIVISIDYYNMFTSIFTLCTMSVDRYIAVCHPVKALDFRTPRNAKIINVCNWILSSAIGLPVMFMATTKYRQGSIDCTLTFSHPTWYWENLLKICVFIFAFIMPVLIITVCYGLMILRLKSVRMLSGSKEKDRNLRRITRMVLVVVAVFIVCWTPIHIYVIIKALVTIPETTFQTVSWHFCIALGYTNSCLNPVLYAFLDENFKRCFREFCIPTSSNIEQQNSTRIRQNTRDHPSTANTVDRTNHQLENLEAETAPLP
T1 sequence (P41146 whole entry): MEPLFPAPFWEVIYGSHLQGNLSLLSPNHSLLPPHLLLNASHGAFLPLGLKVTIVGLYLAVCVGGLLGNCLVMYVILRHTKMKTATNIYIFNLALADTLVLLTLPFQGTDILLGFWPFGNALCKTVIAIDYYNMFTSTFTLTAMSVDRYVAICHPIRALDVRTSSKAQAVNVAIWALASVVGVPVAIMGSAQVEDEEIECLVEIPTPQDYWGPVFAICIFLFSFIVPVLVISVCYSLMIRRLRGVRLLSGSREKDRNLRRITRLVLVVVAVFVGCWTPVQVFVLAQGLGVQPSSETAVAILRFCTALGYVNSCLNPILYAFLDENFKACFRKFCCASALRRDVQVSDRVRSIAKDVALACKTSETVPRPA

Row | Structure (SMILES) | % antinociception (C57BL/6J wild-type mice [1]) | antinociceptive activity in μ-KO mice compared with wild-type [2] | effect on motor performance (latency to fall) (C57BL/6J wild-type mice [3]) | affinity for the NOP receptor (human NOP receptor) | G protein activation (agonist activity) at the μ receptor (human μ receptor) | bias factor (G protein over β-arrestin2) (human κ receptor [4]) | conditioned place preference or aversion (C57BL/6J wild-type mice [5]) | inhibition of U69,593-stimulated [35S]-GTPγS coupling (human κ receptor [8]) | other results
1 | Oc1cccc(CCN(CCc2ccccc2)CC2CCC2)c1 [HS665] | 1.97 ± 1.18% | not statistically altered | did not significantly impact motor performance | no significant affinity | no agonist activity | 389 | significant place aversion | – | antinociceptive ED50 and 95% C.I. (C57BL/6J wild-type mice [1]): 3.99 (3.14 – 5.33) nmol and 4.74 (3.72 – 6.41) nmol and 3.74 (2.98–4.78) nmol and 3.74 nmol; κ receptor-mediated antinociceptive effects in the writhing test (mice): comparable with U50,488
2 | Oc1cccc(CCN(CCc2ccccc2)CC2CC2)c1 [HS666] | 1.00 ± 0.48% | not statistically altered | did not significantly impact motor performance | no significant affinity | no agonist activity | 62 | neither significant preference nor aversion | partially blocks | fold decrease in potency, [35S]-GTPγS assay versus PathHunter assay (human κ receptor [4]): 13 fold; ΔΔlog(τ/KA) G protein - β-arrestin2 (human κ receptor [4]): 1.79; antinociceptive activity in κ-KO mice compared with wild-type [6]: no antinociceptive activity; Ki (human κ receptor [7]): 5.9 nM; Ki (μ receptor): 826 nM; Ki (δ receptor): > 10000 nM; EC50 (human κ receptor [8]): 35.7 ± 6 nM; agonist-stimulated [35S]-GTPγS binding in the presence of nor-BNI (human κ receptor [8]): significantly antagonized; log(τ/KA) G protein (human κ receptor [8]): 5.73 ± 0.29; Emax (human κ receptor [8]; read-out: G protein coupling Emax): 50 ± 4%; EC50 (human κ receptor [9]): 449 ± 56 nM; log(τ/KA) β-arrestin2 (human κ receptor [9]): 3.52 ± 0.02; Emax (human κ receptor [9]; read-out: β-arrestin2 recruitment Emax): 24 ± 1%
3 | CN1CC[C@]23c4c5ccc(O)c4O[C@H]2[C@@H](O)C=C[C@H]3[C@H]1C5 [morphine, morphine sulfate, reference compound] | – | – | – | – | – | – | significant CPP | – | antinociceptive ED50 (C57BL/6J wild-type mice [10]): 2.35 nmol
4 | Oc1ccc2c3c1O[C@H]1c4[nH]c5c(c4C[C@@]4(O)[C@@H](C2)N(CC2CC2)CC[C@]314)C[C@@]1(O)[C@H]2Cc3ccc(O)c4c3[C@@]1(CCN2CC1CC1)[C@H]5O4 [nor-BNI, nor‐binaltorphimine, reference compound] | – | – | – | – | – | – | – | completely blocks coupling | –

Source: PMC5513865 (British Journal of Pharmacology, 2017)
